Data on 21 compounds can be found in ChEMBL document CHEMBL5360576, “New and promising type of leukotriene B4 (LTB4) antagonists based on the 1,4-benzodioxine structure” (Eur J Med Chem, 2023).

Assay [1] concerns the target T1, Leukotriene B4 receptor (Homo sapiens, UniProt Q9NPC1+Q15722). As to the kind of experiment: Antagonist activity against LTB4 receptor in human U-937 cells at 0.0000001 M incubated for 40 mins by liquid scintillation counting method. It counts as cell-based. To be noted: dose 100 nM.
Assay [2] has as its target T1, Leukotriene B4 receptor. As to the kind of experiment: Antagonist activity against LTB4 receptor in human U-937 cells incubated for 40 mins by liquid scintillation counting method. It counts as cell-based.
In assay [3] the target is T1, Leukotriene B4 receptor. As to the kind of experiment: Antagonist activity against LTB4 receptor in human U-937 cells at 0.00001 M incubated for 40 mins by liquid scintillation counting method. It counts as cell-based. As to conditions: dose 10 µM.
For assay [4], the target named is T1, Leukotriene B4 receptor. Description: Antagonist activity against LTB4 receptor (unknown origin) assessed as inhibition constant. It counts as protein assay.
Assay [5] has as its system Rattus norvegicus. Description: Antinflammatory activity against carrageenan induced pedal edema rat model assessed as average pedal volume at 30 mg/kg,po administration and measured after 1 hr (reference value: 1.82 +/- 0.04 mL). It counts as functional.
Assay [6] concerns Rattus norvegicus. As to the kind of experiment: Antinflammatory activity against carrageenan induced pedal edema rat model assessed as reduction in edema at 30 mg/kg,po administration and measured after 2 hrs relative to control. It counts as functional. Set-up: scale not given: the % may be the effect or the level left. (In general: Carrageenan injected into the paw causes an acute inflammation.)

Assay [7] relates to Rattus norvegicus. As to the kind of experiment: Antinflammatory activity against carrageenan induced pedal edema rat model assessed as inflammation at 30 mg/kg,po administration and measured after 1 hr (reference value: 20.17 +/- 2.8 %). It counts as functional.
Assay [8] concerns Rattus norvegicus. Description: Antinflammatory activity against carrageenan induced pedal edema rat model assessed as inflammation at 30 mg/kg,po administration and measured after 4 hrs (reference value: 58.75 +/- 3.5 %). It counts as functional.
Assay [9] relates to Rattus norvegicus. As to the kind of experiment: Antinflammatory activity against carrageenan induced pedal edema rat model assessed as average pedal volume at 30 mg/kg,po administration and measured after 2 hrs (reference value: 2.2 +/- 0.1 mL). It counts as functional.
In assay [10] the test system is Rattus norvegicus. Description: Antinflammatory activity against carrageenan induced pedal edema rat model assessed as inflammation at 30 mg/kg,po administration and measured after 2 hrs (reference value: 45.39 +/- 6.82 %). It counts as functional.
For assay [11], the system named is Rattus norvegicus. As to the kind of experiment: Antinflammatory activity against carrageenan induced pedal edema rat model assessed as average pedal volume at 30 mg/kg,po administration and measured after 4 hrs (reference value: 2.41 +/- 0.05 mL). It counts as functional.
For assay [12], the system named is Rattus norvegicus. As to the kind of experiment: Antinflammatory activity against carrageenan induced pedal edema rat model assessed as reduction in edema at 30 mg/kg,po administration and measured after 1 hr relative to control. It counts as functional. Set-up: scale not given: the % may be the effect or the level left.
For assay [13], the system named is Rattus norvegicus. Description: Antinflammatory activity against carrageenan induced pedal edema rat model assessed as reduction in edema at 30 mg/kg,po administration and measured after 4 hrs relative to control. Also noted: scale not given: the % may be the effect or the level left. It counts as functional.
The subject of assay [14] is Rattus norvegicus. As to the kind of experiment: Antinflammatory activity against carrageenan induced pedal edema rat model assessed as inflammation at 10 mg/kg,po administration and measured after 1 hr (reference value: 20.17 +/- 2.8 %). It counts as functional.
For assay [15], the system named is Rattus norvegicus. Description: Antinflammatory activity against carrageenan induced pedal edema rat model assessed as inflammation at 10 mg/kg,po administration and measured after 2 hrs (reference value: 45.39 +/- 6.82 %). It counts as functional.
In assay [16] the test system is Rattus norvegicus. Description: Antinflammatory activity against carrageenan induced pedal edema rat model assessed as inflammation at 10 mg/kg,po administration and measured after 4 hrs (reference value: 58.75 +/- 3.5 %). It counts as functional.
The test system of assay [17] is Rattus norvegicus. Description: Antinflammatory activity against carrageenan induced pedal edema rat model assessed as average pedal volume at 10 mg/kg,po administration and measured after 1 hr (reference value: 1.82 +/- 0.04 mL). It counts as functional.
Assay [18] has as its system Rattus norvegicus. As to the kind of experiment: Antinflammatory activity against carrageenan induced pedal edema rat model assessed as average pedal volume at 10 mg/kg,po administration and measured after 4 hrs (reference value: 2.41 +/- 0.05 mL). It counts as functional.
The subject of assay [19] is Rattus norvegicus. Description: Antinflammatory activity against carrageenan induced pedal edema rat model assessed as reduction in edema at 10 mg/kg,po administration and measured after 2 hrs relative to control. It counts as functional. Also noted: scale not given: the % may be the effect or the level left.
The subject of assay [20] is Rattus norvegicus. Description: Antinflammatory activity against carrageenan induced pedal edema rat model assessed as reduction in edema at 10 mg/kg,po administration and measured after 1 hr relative to control. It counts as functional. Also noted: scale not given: the % may be the effect or the level left.
For assay [21], the system named is Rattus norvegicus. As to the kind of experiment: Antinflammatory activity against carrageenan induced pedal edema rat model assessed as average pedal volume at 10 mg/kg,po administration and measured after 2 hrs (reference value: 2.2 +/- 0.1 mL). It counts as functional.
Assay [22] relates to Rattus norvegicus. Description: Antinflammatory activity against carrageenan induced pedal edema rat model assessed as reduction in edema at 10 mg/kg,po administration and measured after 4 hrs relative to control. It counts as functional. Also noted: scale not given: the % may be the effect or the level left.

Molecules are shown by their SMILES.

T1 sequence (Q15722 whole entry, looked up): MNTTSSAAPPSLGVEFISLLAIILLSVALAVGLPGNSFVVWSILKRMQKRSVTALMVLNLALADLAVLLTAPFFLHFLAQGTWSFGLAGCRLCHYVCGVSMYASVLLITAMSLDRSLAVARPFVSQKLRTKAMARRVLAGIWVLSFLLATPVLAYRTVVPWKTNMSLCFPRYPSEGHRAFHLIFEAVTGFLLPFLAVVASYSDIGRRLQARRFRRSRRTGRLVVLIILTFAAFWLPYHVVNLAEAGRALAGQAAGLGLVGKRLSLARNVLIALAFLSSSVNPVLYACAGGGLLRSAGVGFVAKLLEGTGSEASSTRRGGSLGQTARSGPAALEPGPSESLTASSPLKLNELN
T1 sequence (Q9NPC1 whole entry, looked up): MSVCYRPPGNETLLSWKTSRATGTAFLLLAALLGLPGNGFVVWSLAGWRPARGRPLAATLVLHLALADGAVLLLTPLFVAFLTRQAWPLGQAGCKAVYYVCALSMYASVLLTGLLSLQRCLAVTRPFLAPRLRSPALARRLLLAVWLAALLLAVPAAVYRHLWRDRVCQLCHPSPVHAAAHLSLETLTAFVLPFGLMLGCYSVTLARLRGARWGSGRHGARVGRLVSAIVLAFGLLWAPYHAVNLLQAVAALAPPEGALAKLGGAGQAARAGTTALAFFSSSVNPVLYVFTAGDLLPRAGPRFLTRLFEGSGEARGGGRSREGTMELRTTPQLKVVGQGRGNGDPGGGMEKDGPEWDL

By inhibition is commonly meant the share of the control response that was lost under treatment. One may read the IC50 as the concentration that inhibits the measured activity by half. Consider `CN(CCc1ccccc1)C(=O)C1=COc2ccc(OCc3ccccc3)cc2O1`, for which the inhibition against Leukotriene B4 receptor [1] worked out at 0%; on Leukotriene B4 receptor [3] (filed as antagonist) it was 40%. The compound also gave an IC50 at Leukotriene B4 receptor [2] of over 10000 nM.

As for `CC(OCc1ccccc1)C1=C(C(=O)O)Oc2cc(OCc3ccccc3)ccc2O1` (configuration not stated), the inhibition against Leukotriene B4 receptor [1] was 0%; against Leukotriene B4 receptor [3] (filed as antagonist), 82%.

By Ki is commonly meant a measure of affinity in units of concentration, obtained from inhibition or displacement. Take `CCCc1ccccc1OCCCCCCc1cccc(OCCCCC(=O)O)c1CCC(=O)O`: at Leukotriene B4 receptor [4], the inhibition constant Ki is 1 nM.

As to `O=C(O)C1=C(C(=O)N2CCC(Cc3ccccc3)CC2)Oc2cc(OCc3ccccc3)ccc2O1`, the inhibition at Leukotriene B4 receptor [1] is 27%; on Leukotriene B4 receptor [3] (filed as antagonist), 78%.

For the compound `O=C(O)C1=C(C(=O)N2CCC(Cc3ccccc3)CC2)Oc2cccc(OCc3ccccc3)c2O1`, the inhibition against Leukotriene B4 receptor [1] was 0%; against Leukotriene B4 receptor [3] (filed as antagonist), 62%. Besides, at Leukotriene B4 receptor [2], the IC50 is 5610 nM.

Regarding `O=C(O)C1=C(C(=O)N2CCC(c3ccccc3)CC2)Oc2cc(OCc3ccccc3)ccc2O1`, the values for the inhibition against Leukotriene B4 receptor [1] and at Leukotriene B4 receptor [3] were 12% and 33%, respectively.

For `CN(CCc1ccccc1)C(=O)C1=C(C(=O)O)Oc2cc(OCc3ccc4ccccc4c3)ccc2O1`, the figures for the inhibition on Leukotriene B4 receptor [1] and at Leukotriene B4 receptor [3] (filed as antagonist) were 18% and 97%, respectively. The compound further registered an IC50 against Leukotriene B4 receptor [2] of 710 nM.

In the case of `CC(OC/C=C/c1ccccc1)C1=C(C(=O)O)Oc2cc(OCc3ccccc3)ccc2O1` (configuration not stated), the inhibition came to 0% against Leukotriene B4 receptor [1] and 82% at Leukotriene B4 receptor [3] (filed as antagonist).

Consider `CN(CCc1ccccc1)C(=O)C1=C(C(=O)O)Oc2cccc(OCc3ccccc3)c2O1`, for which the inhibition on Leukotriene B4 receptor [1] came out at 6%; against Leukotriene B4 receptor [3], 39%.

Consider `O=C(O)C1=C(C(=O)N2CCC(Cc3ccccc3)CC2)Oc2ccc(OCc3ccccc3)cc2O1`, for which the values for the inhibition on Leukotriene B4 receptor [1] and at Leukotriene B4 receptor [3] (filed as antagonist) were 20% and 98%, respectively. Also, the IC50 on Leukotriene B4 receptor [2] is given as 477 nM.

Turning to `CC(OCc1ccc2ccccc2c1)C1=C(C(=O)O)Oc2ccc(OCc3ccccc3)cc2O1` (configuration not stated), the inhibition against Leukotriene B4 receptor [1] stood at 0%; against Leukotriene B4 receptor [3] (filed as antagonist), 74%.

On to `CN(CCc1ccccc1)C(=O)C1=C(C(=O)O)Oc2ccc(OCc3ccccc3)cc2O1`, for which the inhibition on Leukotriene B4 receptor [1] worked out at 25%; on Leukotriene B4 receptor [3] (filed as antagonist) it was 95%. Besides, on Leukotriene B4 receptor [2], the IC50 was 439 nM.

Take `CN(CCc1ccccc1)C(=O)C1=C(C(=O)O)Oc2cc(OCc3ccccc3)ccc2O1`: the Activity in the assay with Rattus norvegicus [5] is 1.66 mL; with Rattus norvegicus [6] it was 16.2%; in the assay with Rattus norvegicus [7] it was 12.17%; in the assay on Rattus norvegicus [8] it was 63.63%; in the assay with Rattus norvegicus [9], 2.04 mL; with Rattus norvegicus [10], 39.05%. Further, the Activity was found to be 2.42 mL in the assay with Rattus norvegicus [11], 39.7% with Rattus norvegicus [12] and 8.3% in the assay on Rattus norvegicus [13]. Further, the inhibition at Leukotriene B4 receptor [1] stood at 38%; at Leukotriene B4 receptor [3] (filed as antagonist) it was 99%. For the same compound, the IC50 on Leukotriene B4 receptor [2] worked out at 288 nM.

As to `CC(OCc1ccccc1)C1=C(C(=O)O)Oc2ccc(OCc3ccccc3)cc2O1` (configuration not stated), the inhibition against Leukotriene B4 receptor [1] was under 10%; on Leukotriene B4 receptor [3] (filed as antagonist) it was 73%.

As for `O=C(O)C1=C(C(=O)N2CCC(c3ccccc3)CC2)Oc2ccc(OCc3ccccc3)cc2O1`, the inhibition against Leukotriene B4 receptor [3] worked out at 29%.

For the compound `CN(CCc1ccccc1)C(=O)C1=C(C(=O)O)Oc2c(OCc3ccccc3)cccc2O1`, the inhibition at Leukotriene B4 receptor [1] was 4.8%; against Leukotriene B4 receptor [3] (filed as antagonist), 94%. Further, at Leukotriene B4 receptor [2], the IC50 amounted to 2700 nM.

On to `CC1(CCOCc2ccccc2)OC(=O)C2=C1Oc1cc(OCc3ccccc3)ccc1O2` (configuration not stated), for which the inhibition was under 10% on Leukotriene B4 receptor [1] and 13% at Leukotriene B4 receptor [3].

As to `CCCc1c(OCCCOc2ccc(C(=O)NC)c(OC)c2CC2CC2)ccc2c1O[C@H](CCC(=O)O)CC2`, the Ki at Leukotriene B4 receptor [4] is recorded as 1.3 nM.

As for `CC(OC/C=C/c1ccccc1)C1=C(C(=O)O)Oc2ccc(OCc3ccccc3)cc2O1` (configuration not stated), the inhibition was found to be 20% at Leukotriene B4 receptor [1] and 92% on Leukotriene B4 receptor [3] (filed as antagonist).

As for `CCN(CC)C(=O)C1=C(C(C)OCc2ccccc2)Oc2cc(OCc3ccccc3)ccc2O1` (configuration not stated), the values for the inhibition against Leukotriene B4 receptor [1] and on Leukotriene B4 receptor [3] (filed as antagonist) were under 10% and 74%, respectively.

With `COc1ccc2c(c1)c(CC(=O)O)c(C)n2C(=O)c1ccc(Cl)cc1` [INDOMETHACIN], the Activity in the assay with Rattus norvegicus [14] stood at 11.1%; in the assay on Rattus norvegicus [15], 24.64%; with Rattus norvegicus [16] it was 40.19%; in the assay with Rattus norvegicus [17], 1.65 mL; in the assay on Rattus norvegicus [18], 2.06 mL; with Rattus norvegicus [19], 45.3%. Also, the values for the Activity with Rattus norvegicus [20], in the assay with Rattus norvegicus [21] and in the assay with Rattus norvegicus [22] were 45%, 1.85 mL and 31.6%, respectively.
